Active and inactive are the calls of the source. The rule behind the calls is not given here.
System: CCRIS mutagenicity, Ames/micronucleus/aberration tests
Assay: CCRIS mutagenicity studies
[1] = Test System: AMES SALMONELLA TYPHIMURIUM, Strain/Indicator: TA98, Metabolic Activation: NONE, Method: STANDARD PLATE
[2] = Test System: AMES SALMONELLA TYPHIMURIUM, Strain/Indicator: TA100, Metabolic Activation: NONE, Method: STANDARD PLATE
[3] = Test System: AMES SALMONELLA TYPHIMURIUM, Strain/Indicator: TA98, Metabolic Activation: NONE, Method: PREINCUBATION
[4] = Test System: AMES SALMONELLA TYPHIMURIUM, Strain/Indicator: TA100, Metabolic Activation: NONE, Method: PREINCUBATION

Structure (SMILES): NC(=O)c1ccc(N)cc1
- mutagenic call (Test System: AMES SALMONELLA TYPHIMURIUM, Strain/Indicator: TA98, Metabolic Activation: HAMSTER, LIVER, S-9, AROCLOR 1254, Method: STANDARD PLATE): inactive; negative
- mutagenic call [1]: inactive; negative
- mutagenic call (Test System: AMES SALMONELLA TYPHIMURIUM, Strain/Indicator: TA98, Metabolic Activation: RAT, LIVER, S-9, AROCLOR 1254, Method: STANDARD PLATE): inactive; negative
- mutagenic call (Test System: AMES SALMONELLA TYPHIMURIUM, Strain/Indicator: TA100, Metabolic Activation: HAMSTER, LIVER, S-9, AROCLOR 1254, Method: STANDARD PLATE): inactive; negative
- mutagenic call [2]: inactive; negative
- mutagenic call (Test System: AMES SALMONELLA TYPHIMURIUM, Strain/Indicator: TA100, Metabolic Activation: RAT, LIVER, S-9, AROCLOR 1254, Method: STANDARD PLATE): inactive; negative
- mutagenic call (Test System: AMES SALMONELLA TYPHIMURIUM, Strain/Indicator: TA1535, Metabolic Activation: HAMSTER, LIVER, S-9, AROCLOR 1254, Method: STANDARD PLATE): inactive; negative
- mutagenic call (Test System: AMES SALMONELLA TYPHIMURIUM, Strain/Indicator: TA1535, Metabolic Activation: NONE, Method: STANDARD PLATE): inactive; negative
- mutagenic call (Test System: AMES SALMONELLA TYPHIMURIUM, Strain/Indicator: TA1535, Metabolic Activation: RAT, LIVER, S-9, AROCLOR 1254, Method: STANDARD PLATE): inactive; negative
- mutagenic call (Test System: AMES SALMONELLA TYPHIMURIUM, Strain/Indicator: TA1537, Metabolic Activation: HAMSTER, LIVER, S-9, AROCLOR 1254, Method: STANDARD PLATE): inactive; negative
- mutagenic call (Test System: AMES SALMONELLA TYPHIMURIUM, Strain/Indicator: TA1537, Metabolic Activation: NONE, Method: STANDARD PLATE): inactive; negative
- mutagenic call (Test System: AMES SALMONELLA TYPHIMURIUM, Strain/Indicator: TA1537, Metabolic Activation: RAT, LIVER, S-9, AROCLOR 1254, Method: STANDARD PLATE): inactive; negative
- mutagenic call (Test System: AMES SALMONELLA TYPHIMURIUM, Strain/Indicator: TA1538, Metabolic Activation: HAMSTER, LIVER, S-9, AROCLOR 1254, Method: STANDARD PLATE): inactive; negative
- mutagenic call (Test System: AMES SALMONELLA TYPHIMURIUM, Strain/Indicator: TA1538, Metabolic Activation: NONE, Method: STANDARD PLATE): inactive; negative
- mutagenic call (Test System: AMES SALMONELLA TYPHIMURIUM, Strain/Indicator: TA1538, Metabolic Activation: RAT, LIVER, S-9, AROCLOR 1254, Method: STANDARD PLATE): inactive; negative
- mutagenic call (Test System: Mouse lymphoma, Strain/Indicator: L5178Y (tk+/tk-), Metabolic Activation: None, Method: Suspension/plate): inactive; negative
- mutagenic call (Test System: Mouse lymphoma, Strain/Indicator: L5178Y (tk+/tk-), Metabolic Activation: Rat, Liver, S-9, Aroclor 1254, Method: Suspension/plate): inactive; negative

Structure (SMILES): c1ccc2c(c1)-c1nc3ccccc3c3c1c-2nc1ccccc13
- mutagenic call [1]: inactive; negative
- mutagenic call (Test System: AMES SALMONELLA TYPHIMURIUM, Strain/Indicator: TA98, Metabolic Activation: RAT LIVER S-9, AROCLOR 1254, Method: STANDARD PLATE): inactive; negative
- mutagenic call (Test System: ESCHERICHIA COLI, Strain/Indicator: WP2 UVR A, Metabolic Activation: NONE, Method: STANDARD PLATE): inactive; negative
- mutagenic call (Test System: ESCHERICHIA COLI, Strain/Indicator: WP2 UVR A, Metabolic Activation: RAT LIVER S-9, AROCLOR 1254, Method: STANDARD PLATE): inactive; negative

Structure (SMILES): COP(=O)(OC)Oc1ccc([N+](=O)[O-])c(C)c1
- mutagenic call [1]: inactive; negative
- mutagenic call (Test System: AMES SALMONELLA TYPHIMURIUM, Strain/Indicator: TA98, Metabolic Activation: RAT, LIVER, S-9, Method: STANDARD PLATE): active; positive
- mutagenic call [2]: inactive; negative
- mutagenic call (Test System: AMES SALMONELLA TYPHIMURIUM, Strain/Indicator: TA100, Metabolic Activation: RAT, LIVER, S-9, Method: STANDARD PLATE): inactive; negative

Structure (SMILES): Nc1cc(C(=O)O)c(O)c(S(=O)(=O)O)c1
- mutagenic call (Test System: AMES SALMONELLA TYPHIMURIUM, Strain/Indicator: TA97, Metabolic Activation: HAMSTER, LIVER, S-9, AROCLOR 1254 (10 OR 30%), Method: PREINCUBATION): inactive; negative
- mutagenic call (Test System: AMES SALMONELLA TYPHIMURIUM, Strain/Indicator: TA97, Metabolic Activation: NONE, Method: PREINCUBATION): inactive; negative
- mutagenic call (Test System: AMES SALMONELLA TYPHIMURIUM, Strain/Indicator: TA97, Metabolic Activation: RAT, LIVER, S-9, AROCLOR 1254 (10%), Method: PREINCUBATION): inactive; negative
- mutagenic call (Test System: AMES SALMONELLA TYPHIMURIUM, Strain/Indicator: TA97, Metabolic Activation: RAT, LIVER, S-9, AROCLOR 1254 (30%), Method: PREINCUBATION): inactive; negative
- mutagenic call (Test System: AMES SALMONELLA TYPHIMURIUM, Strain/Indicator: TA98, Metabolic Activation: HAMSTER, LIVER, S-9, AROCLOR 1254 (10 OR 30%), Method: PREINCUBATION): inactive; negative
- mutagenic call [3]: inactive; negative
- mutagenic call (Test System: AMES SALMONELLA TYPHIMURIUM, Strain/Indicator: TA98, Metabolic Activation: RAT, LIVER, S-9, AROCLOR 1254 (10 OR 30%), Method: PREINCUBATION): inactive; negative
- mutagenic call (Test System: AMES SALMONELLA TYPHIMURIUM, Strain/Indicator: TA100, Metabolic Activation: HAMSTER, LIVER, S-9, AROCLOR 1254 (10 OR 30%), Method: PREINCUBATION): inactive; negative
- mutagenic call [4]: inactive; negative
- mutagenic call (Test System: AMES SALMONELLA TYPHIMURIUM, Strain/Indicator: TA100, Metabolic Activation: RAT, LIVER, S-9, AROCLOR 1254 (10 OR 30%), Method: PREINCUBATION): inactive; negative
- mutagenic call (Test System: AMES SALMONELLA TYPHIMURIUM, Strain/Indicator: TA1535, Metabolic Activation: HAMSTER, LIVER, S-9, AROCLOR 1254 (10 OR 30%), Method: PREINCUBATION): inactive; negative
- mutagenic call (Test System: AMES SALMONELLA TYPHIMURIUM, Strain/Indicator: TA1535, Metabolic Activation: NONE, Method: PREINCUBATION): inactive; negative
- mutagenic call (Test System: AMES SALMONELLA TYPHIMURIUM, Strain/Indicator: TA1535, Metabolic Activation: RAT, LIVER, S-9, AROCLOR 1254 (10 OR 30%), Method: PREINCUBATION): inactive; negative
- mutagenic call (Test System: AMES SALMONELLA TYPHIMURIUM, Strain/Indicator: TA1537, Metabolic Activation: HAMSTER, LIVER, S-9, AROCLOR 1254 (10 OR 30%), Method: PREINCUBATION): inactive; negative
- mutagenic call (Test System: AMES SALMONELLA TYPHIMURIUM, Strain/Indicator: TA1537, Metabolic Activation: NONE, Method: PREINCUBATION): inactive; negative
- mutagenic call (Test System: AMES SALMONELLA TYPHIMURIUM, Strain/Indicator: TA1537, Metabolic Activation: RAT, LIVER, S-9, AROCLOR 1254 (10 OR 30%), Method: PREINCUBATION): inactive; negative

Structure (SMILES): CNc1ccc2ncc(-c3ccccc3)nc2c1C
- mutagenic call [3]: inactive; negative
- mutagenic call (Test System: AMES SALMONELLA TYPHIMURIUM, Strain/Indicator: TA98, Metabolic Activation: RAT, LIVER, S-9, PCB, Method: PREINCUBATION): active; positive
- mutagenic call [4]: inactive; negative
- mutagenic call (Test System: AMES SALMONELLA TYPHIMURIUM, Strain/Indicator: TA100, Metabolic Activation: RAT, LIVER, S-9, PCB, Method: PREINCUBATION): active; positive

Structure (SMILES): CC(C)(Br)C(Br)CCl (configuration not stated)
- mutagenic call (Test System: AMES SALMONELLA TYPHIMURIUM, Strain/Indicator: TA100, Metabolic Activation: RAT, LIVER, MICROSOMES, PHENOBARBITAL, Method: PREINCUBATION): inactive; negative
- mutagenic call (Test System: AMES SALMONELLA TYPHIMURIUM, Strain/Indicator: TA100, Metabolic Activation: RAT, LIVER, MICROSOMES, Method: PREINCUBATION): inactive; negative

Reference: PubChem BioAssay AID1259407 (Chemical Carcinogenesis Research Information System (CCRIS), 2018)
